{"source": "patent US7888357B2", "about": "“Anti-inflammatory and protein kinase inhibitor compositions and related methods for downregulation of detrimental cellular responses and inhibition of cell death” (Northwestern University, priority 2001, dated 2011)", "tested_on": "rats", "experiment": "Organ histology after high dose injections", "type": "in vivo, rat", "details": "after high dose injections into rats (data not shown)", "data": [{"smiles": "N=c1cc2c(nn1CCCCCCCCCCC(=O)N1CCN(c3ncccn3)CC1)-c1ccccc1CC2", "note": "[MW01-070C]", "values": [{"measurement": "liver, kidney or brain damage based on histology", "result": "no major liver, kidney or brain damage"}]}]}
